Assay results published in US20080021026A1, “BENZOTHIOPHENE INHIBITORS OF RHO KINASE” (priority 2006, published 2008).
pIC50: −log10 of the molar value. Read-outs that look alike come from different tables or passages of the source.

Experiments:
[1] = molecular target: T1, recombinant N-terminal GST-tagged human Rho kinase 2 (ROCK2, amino acids 1-552) (Homo sapiens, UniProt O75116); assay: In vitro Rho kinase assay (luciferase-based ATP consumption), ROCK2; assay type: biochemical
T1 construct: ROCK2, amino acids 1-552; purchased Invitrogen Inc. PV3759
In short: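 Luciferase-based luminescence of leftover ATP after 2 h at 30 °C, where inhibition raises signal, reports activity of GST-tagged ROCK2 (aa 1-552) at 0.82 μg/ml. Conditions: S6 peptide 100 μg/ml, […], pH 7.5 Tris buffer. Results given as percent of H-1152P control activity.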

[2] = molecular target: T2, recombinant N-terminal GST-tagged human Rho kinase 1 (ROCK1, amino acids 1-535) (Homo sapiens, UniProt Q13464); assay: In vitro Rho kinase assay (luciferase-based ATP consumption), ROCK1; assay type: biochemical
T2 construct: ROCK1, amino acids 1-535; purchased Invitrogen Inc. PV-3691
In short: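 ATP depletion measured by firefly luciferase luminescence after 2 h at 30 °C, with inhibition raising signal and activity expressed relative to H-1152P. Reaction: 0.82 μg/ml recombinant GST-tagged ROCK1 (aa 1-535), S6 peptide 100 μg/ml, […], pH 7.5 Tris buffer.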

[3] = recombinant GST-tagged human ROCK2, luciferase-based ATP consumption, read-out: ROCK2 IC50
[4] = recombinant GST-tagged human ROCK1, luciferase-based ATP consumption, read-out: ROCK1 IC50
[5] = ROCK2 IC50, recombinant GST-tagged human ROCK2, luciferase-based ATP consumption
[6] = ROCK1 IC50, recombinant GST-tagged human ROCK1, luciferase-based ATP consumption

T1 sequence (O75116 1-552): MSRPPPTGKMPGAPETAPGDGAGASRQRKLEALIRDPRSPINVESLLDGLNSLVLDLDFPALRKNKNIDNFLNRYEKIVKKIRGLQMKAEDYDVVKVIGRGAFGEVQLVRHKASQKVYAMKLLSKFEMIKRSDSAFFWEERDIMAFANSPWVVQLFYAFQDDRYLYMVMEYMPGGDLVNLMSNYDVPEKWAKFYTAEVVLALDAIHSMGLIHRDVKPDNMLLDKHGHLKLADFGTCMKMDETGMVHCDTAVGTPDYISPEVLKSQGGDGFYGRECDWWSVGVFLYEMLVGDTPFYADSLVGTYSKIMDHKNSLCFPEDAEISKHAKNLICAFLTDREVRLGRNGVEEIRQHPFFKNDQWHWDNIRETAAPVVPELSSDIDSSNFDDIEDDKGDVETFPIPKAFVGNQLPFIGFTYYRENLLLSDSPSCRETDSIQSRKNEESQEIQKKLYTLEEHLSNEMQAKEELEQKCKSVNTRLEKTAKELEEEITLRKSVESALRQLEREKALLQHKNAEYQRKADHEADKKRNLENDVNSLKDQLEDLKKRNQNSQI
T2 sequence (Q13464 1-535): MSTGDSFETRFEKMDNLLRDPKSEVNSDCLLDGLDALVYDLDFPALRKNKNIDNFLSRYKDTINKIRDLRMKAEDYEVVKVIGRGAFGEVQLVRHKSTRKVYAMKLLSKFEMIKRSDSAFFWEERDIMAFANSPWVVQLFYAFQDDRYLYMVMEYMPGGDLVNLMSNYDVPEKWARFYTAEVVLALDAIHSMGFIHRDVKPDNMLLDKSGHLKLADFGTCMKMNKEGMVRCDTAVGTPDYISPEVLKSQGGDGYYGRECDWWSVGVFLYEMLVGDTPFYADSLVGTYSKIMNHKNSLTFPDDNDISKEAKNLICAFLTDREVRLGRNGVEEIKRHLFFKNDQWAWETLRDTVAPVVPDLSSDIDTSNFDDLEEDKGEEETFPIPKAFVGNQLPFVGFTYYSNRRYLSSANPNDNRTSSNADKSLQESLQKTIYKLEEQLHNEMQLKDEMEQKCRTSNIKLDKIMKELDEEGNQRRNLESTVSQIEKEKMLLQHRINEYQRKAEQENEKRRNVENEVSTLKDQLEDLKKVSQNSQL

SMILES | pIC50 [1, 3] | pIC50 [2, 4] | pIC50 [1, 5] | pIC50 [2, 6]
Cc1c(-c2ccnc(N)n2)sc2ccc(CNC(=O)c3cccc(Oc4ccccc4)c3)cc12 [Example 282, Cc1c(sc2ccc(CNC(═O)c3cccc(Oc4ccccc4)c3)cc12)-c5ccnc(N)n5] | < 5.30 | < 5.30 | – | –
Cc1c(-c2ccnc(N)n2)sc2ccc(CNC(=O)c3ccccc3Oc3ccccc3)cc12 [Example 283, Cc1c(sc2ccc(CNC(═O)c3ccccc3Oc4ccccc4)cc12)-c5ccnc(N)n5] | < 5.30 | > 5.30 | – | –
Cc1c(-c2ccnc(N)n2)sc2ccc(CNC(=O)c3ccc(-c4ccc(O)cc4)cc3)cc12 [Example 285, Cc1c(sc2ccc(CNC(═O)c3ccc(cc3)-c4ccc(O)cc4)cc12)-c5ccnc(N)n5] | > 5.30 | < 5.30 | – | –
Cc1cc(C(=O)NCc2ccc3sc(-c4ccnc(N)n4)c(C)c3c2)ccc1Br [Example 286, Cc1cc(ccc1Br)C(═O)NCc2ccc3sc(c(C)c3c2)-c4ccnc(N)n4] | < 5.30 | < 5.30 | – | –
Cc1c(-c2ccnc(N)n2)sc2ccc(CNC(=O)Cc3ccc(Br)cc3)cc12 [Example 288, Cc1c(sc2ccc(CNC(═O)Cc3ccc(Br)cc3)cc12)-c4ccnc(N)n4] | > 5.30 | > 5.30 | – | –
Cc1c(-c2ccnc(N)n2)sc2ccc(CNC(=O)C3CCCN3C(=O)OC(C)(C)C)cc12 (centres unmarked) [Example 289, Cc1c(sc2ccc(CNC(═O)[C]3CCCN3C(═O)OC(C)(C)C)cc12)-c4ccnc(N)n4] | < 5.30 | > 5.30 | – | –
Cc1c(-c2ccnc(N)n2)sc2ccc(CNC(=O)C=Cc3ccccc3C(F)(F)F)cc12 [Example 290, Cc1c(sc2ccc(CNC(═O)C═Cc3ccccc3C(F)(F)F)cc12)-c4ccnc(N)n4] | < 5.30 | < 5.30 | – | –
Cc1c(-c2ccnc(N)n2)sc2ccc(CNC(=O)CCc3cccc(C(F)(F)F)c3)cc12 [Example 294, Cc1c(sc2ccc(CNC(═O)CCc3cccc(c3)C(F)(F)F)cc12)-c4ccnc(N)n4] | > 5.30 | > 5.30 | – | –
CC1=NN(c2ccc(C(=O)NCc3ccc4sc(-c5ccnc(N)n5)c(C)c4c3)cc2)C(=O)C1 [Example 295, CC1═NN(C(═O)C1)c2ccc(cc2)C(═O)NCc3ccc4sc(c(C)c4c3)-c5ccnc(N)n5] | < 5.30 | > 5.30 | – | –
CC(=O)NC(Cc1ccc(O)cc1)C(=O)NCc1ccc2sc(-c3ccnc(N)n3)c(C)c2c1 (centres unmarked) [Example 299, CC(═O)N[C](Cc1ccc(O)cc1)C(═O)NCc2ccc3sc(c(C)c3c2)-c4ccnc(N)n4] | < 5.30 | < 5.30 | – | –
Cc1c(-c2ccnc(N)n2)sc2ccc(CNC(=O)c3c(Cl)cc(Cl)cc3Cl)cc12 [Example 300, Cc1c(sc2ccc(CNC(═O)c3c(Cl)cc(Cl)cc3Cl)cc12)-c4ccnc(N)n4] | – | – | > 5.30 | < 5.30
Cc1c(-c2ccnc(N)n2)sc2ccc(CNC(=O)CCc3ccccc3Br)cc12 [Example 303, Cc1c(sc2ccc(CNC(═O)CCc3ccccc3Br)cc12)-c4ccnc(N)n4] | < 5.30 | < 5.30 | – | –
Cc1c(-c2ccnc(N)n2)sc2ccc(CNC(=O)CCc3cccc(Br)c3)cc12 [Example 304, Cc1c(sc2ccc(CNC(═O)CCc3cccc(Br)c3)cc12)-c4ccnc(N)n4] | > 5.30 | < 5.30 | – | –
COc1ccc(Br)c(C(=O)NCc2ccc3sc(-c4ccnc(N)n4)c(C)c3c2)c1 [Example 310, COc1ccc(Br)c(c1)C(═O)NCc2ccc3sc(c(C)c3c2)-c4ccnc(N)n4] | > 5.30 | < 5.30 | – | –
Cc1c(-c2ccnc(N)n2)sc2ccc(CNC(=O)C(C(C)C)N(C)C(=O)OC(C)(C)C)cc12 (centres unmarked) [Example 312, CC(C)C(N(C)C(═O)OC(C)(C)C)C(═O)NCc1ccc2sc(c(C)c2c1)-c3ccnc(N)n3] | < 5.30 | < 5.30 | – | –
Cc1c(-c2ccnc(N)n2)sc2ccc(CNC(=O)c3ccc(C(F)(F)F)cc3[N+](=O)[O-])cc12 [Example 313, Cc1c(sc2ccc(CNC(═O)c3ccc(cc3[N+]([O−])═O)C(F)(F)F)cc12)-c4ccnc(N)n4] | > 5.30 | > 5.30 | – | –
Cc1c(-c2ccnc(N)n2)sc2ccc(CNC(=O)c3cc(Br)ccc3Cl)cc12 [Example 314, Cc1c(sc2ccc(CNC(═O)c3cc(Br)ccc3Cl)cc12)-c4ccnc(N)n4] | – | – | > 5.30 | > 5.30
Cc1c(-c2ccnc(N)n2)sc2ccc(CNC(=O)c3ccc(Cl)c(Br)c3)cc12 [Example 315, Cc1c(sc2ccc(CNC(═O)c3ccc(Cl)c(Br)c3)cc12)-c4ccnc(N)n4] | > 5.30 | > 5.30 | – | –

Now from value to compound, other results behind:

pIC50 [1, 3] | pIC50 [2, 4] | SMILES | pIC50 [1, 5] | pIC50 [2, 6]
> 5.30 | < 5.30 | Cc1c(-c2ccnc(N)n2)sc2ccc(CNC(=O)c3ccc(Oc4ccccc4)cc3)cc12 [Example 284, Cc1c(sc2ccc(CNC(═O)c3ccc(Oc4ccccc4)cc3)cc12)-c5ccnc(N)n5] | – | –
> 5.30 | < 5.30 | Cc1ccc(C(=O)NCc2ccc3sc(-c4ccnc(N)n4)c(C)c3c2)cc1Br [Example 287, Cc1ccc(cc1Br)C(═O)NCc2ccc3sc(c(C)c3c2)-c4ccnc(N)n4] | – | –
> 5.30 | < 5.30 | CCOc1ccc2ccccc2c1C(=O)NCc1ccc2sc(-c3ccnc(N)n3)c(C)c2c1 [Example 291, CCOc1ccc2ccccc2c1C(═O)NCc3ccc4sc(c(C)c4c3)-c5ccnc(N)n5] | – | –
< 5.30 | > 5.30 | Cc1c(-c2ccnc(N)n2)sc2ccc(CNC(=O)C(NC(=O)OC(C)(C)C)C(C)C)cc12 (centres unmarked) [Example 292, CC(C)[C](NC(═O)OC(C)(C)C)C(═O)NCc1ccc2sc(c(C)c2c1)-c3ccnc(N)n3] | – | –
> 5.30 | < 5.30 | Cc1nc(Br)sc1C(=O)NCc1ccc2sc(-c3ccnc(N)n3)c(C)c2c1 [Example 296, Cc1nc(Br)sc1C(═O)NCc2ccc3sc(c(C)c3c2)-c4ccnc(N)n4] | – | –
> 5.30 | > 5.30 | Cc1c(-c2ccnc(N)n2)sc2ccc(CNC(=O)c3c4ccccc4cc4ccccc34)cc12 [Example 297, Cc1c(sc2ccc(CNC(═O)c3c4ccccc4cc5ccccc35)cc12)-c6ccnc(N)n6] | – | –
> 5.30 | > 5.30 | Cc1c(-c2ccnc(N)n2)sc2ccc(CNC(=O)c3cc(C(C)C)cc(C(C)C)c3O)cc12 [Example 298, CC(C)c1cc(C(C)C)c(O)c(c1)C(═O)NCc2ccc3sc(c(C)c3c2)-c4ccnc(N)n4] | – | –
> 5.30 | < 5.30 | COc1cc(C(=O)NCc2ccc3sc(-c4ccnc(N)n4)c(C)c3c2)c([N+](=O)[O-])cc1OC [Example 301, COc1cc(C(═O)NCc2ccc3sc(c(C)c3c2)-c4ccnc(N)n4)c(cc1OC)[N+]([O−])═O] | – | –
< 5.30 | < 5.30 | Cc1c(-c2ccnc(N)n2)sc2ccc(CNC(=O)c3ccc(OCc4ccccc4)cc3)cc12 [Example 302, Cc1c(sc2ccc(CNC(═O)c3ccc(OCc4ccccc4)cc3)cc12)-c5ccnc(N)n5] | – | –
< 5.30 | < 5.30 | Cc1c(-c2ccnc(N)n2)sc2ccc(CNC(=O)C3CCCCN3C(=O)OC(C)(C)C)cc12 (centres unmarked) [Example 305, Cc1c(sc2ccc(CNC(═O)[C]3CCCCN3C(═O)OC(C)(C)C)cc12)-c4ccnc(N)n4] | – | –
> 5.30 | < 5.30 | Cc1c(-c2ccnc(N)n2)sc2ccc(CNC(=O)c3ccc(Oc4cccc(O)c4)cc3)cc12 [Example 306, Cc1c(sc2ccc(CNC(═O)c3ccc(Oc4cccc(O)c4)cc3)cc12)-c5ccnc(N)n5] | – | –
< 5.30 | > 5.30 | COc1ccc2cc(C(C)C(=O)NCc3ccc4sc(-c5ccnc(N)n5)c(C)c4c3)ccc2c1 (centres unmarked) [Example 307, COc1ccc2cc(ccc2c1)[C](C)C(═O)NCc3ccc4sc(c(C)c4c3)-c5ccnc(N)n5] | – | –
< 5.30 | < 5.30 | Cc1c(-c2ccnc(N)n2)sc2ccc(CNC(=O)C3CN(C(=O)OC(C)(C)C)CCN3)cc12 (centres unmarked) [Example 308, Cc1c(sc2ccc(CNC(═O)[C]3CN(CCN3)C(═O)OC(C)(C)C)cc12)-c4ccnc(N)n4] | – | –
< 5.30 | < 5.30 | Cc1c(-c2ccnc(N)n2)sc2ccc(CNC(=O)C3CC(O)CN3C(=O)OC(C)(C)C)cc12 (centres unmarked) [Example 311, Cc1c(sc2ccc(CNC(═O)[C]3CC(O)CN3C(═O)OC(C)(C)C)cc12)-c4ccnc(N)n4] | – | –
> 5.30 | > 5.30 | Cc1c(-c2ccnc(N)n2)sc2ccc(CNC(=O)c3ccccc3C(=O)c3ccc(O)cc3)cc12 [Example 316, Cc1c(sc2ccc(CNC(═O)c3ccccc3C(═O)c4ccc(O)cc4)cc12)-c5ccnc(N)n5] | – | –
< 5.30 | > 5.30 | Cc1c(-c2ccnc(N)n2)sc2ccc(CNC(=O)c3ccccc3C(=O)c3ccc(F)cc3)cc12 [Example 317, Cc1c(sc2ccc(CNC(═O)c3ccccc3C(═O)c4ccc(F)cc4)cc12)-c5ccnc(N)n5] | – | –
> 5.30 | < 5.30 | Cc1c(-c2ccnc(N)n2)sc2ccc(CNC(=O)C(C)c3ccc(-c4ccccc4)c(F)c3)cc12 (centres unmarked) [Example 318, CC(C(═O)NCc1ccc2sc(c(C)c2c1)-c3ccnc(N)n3)c4ccc(c(F)c4)-c5ccccc5] | – | –
> 5.30 | < 5.30 | Cc1c(-c2ccnc(N)n2)sc2ccc(CNC(=O)c3ccc(I)cc3)cc12 [Example 319, Cc1c(sc2ccc(CNC(═O)c3ccc(I)cc3)cc12)-c4ccnc(N)n4] | – | –
> 5.30 | < 5.30 | Cc1c(-c2ccnc(N)n2)sc2ccc(CNC(=O)c3cccc(I)c3)cc12 [Example 320, Cc1c(sc2ccc(CNC(═O)c3cccc(I)c3)cc12)-c4ccnc(N)n4] | – | –
